Data as given in PubChem BioAssay (NCI).
Where “and” joins values, the source holds several entries; their conditions need not be identical. Equal entries are not always repeated.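 How tested: cells in 96-well plates exposed to compound for 48 hours at five concentrations. The concentration for 50% growth inhibition is given as GI50. TGI: concentration producing complete growth inhibition.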

Assays:
Test in all cases: inhibition of tumour cell growth, NCI panel, 48 h
DMS 273 small cell lung = test system: DMS 273 small cell lung
M19-MEL melanoma = test system: M19-MEL melanoma
XF 498 CNS = test system: XF 498 CNS
LXFL 529 NSCLC = test system: LXFL 529 NSCLC
HOP-18 NSCLC = test system: HOP-18 NSCLC
BT-549 breast = test system: BT-549 breast
MCF7 breast = test system: MCF7 breast
MDA-N = test system: MDA-N
RXF-631 renal = test system: RXF-631 renal

SMILES	TGI (DMS 273 small cell lung) [µM]	TGI (M19-MEL melanoma) [µM]	TGI (LXFL 529 NSCLC) [µM]	GI50 (BT-549 breast) [µM]	TGI (BT-549 breast)	GI50 (MCF7 breast) [µM]	TGI (MCF7 breast)	also measured
C=CNC(=S)n1nc(-c2ccccc2NC(=O)C(F)(F)F)c(=O)n(C(=S)NC=C)c1=S	> 100	> 100	> 100	–	–	–	–	TGI (XF 498 CNS): 83 µM
COC(=O)C1=Cc2cn(S(=O)(=O)c3ccc(C)cc3)c3cccc(c23)C(C=C(C)C)N1C(C)=O (stereo not drawn)	> 100	> 100	> 100	–	–	–	–	TGI (HOP-18 NSCLC): > 100 µM; TGI (XF 498 CNS): > 100 µM
CSCC(COC(C)=O)(CSC)c1ccncc1	> 100	> 100	> 100	–	–	–	–	–
COc1ccc2c(c1)C(=O)c1c-2c(OCCN2CCCCC2)nc2ccc(OC)cc12	–	–	–	8.26	23.3 µM	0.275	2.05 µM	–
CC(=O)Nc1ccc(Cc2ccc3[nH]c(=O)cc(C)c3c2)cc1	–	–	–	–	> 100 µM	–	> 100 µM	TGI (MDA-N): > 100 µM
O=C(O)c1c[nH]c2c(ccc3[nH]cc(C(=O)O)c(=O)c32)c1=O	–	–	–	–	> 100 µM	–	> 100 µM	TGI (MDA-N): > 100 µM
Cn1c2c(c3ccccc31)CCN(CCCN1CCN(c3ccccc3)CC1)C2=O	52.4	38.2	36.3	–	–	–	–	TGI (HOP-18 NSCLC): 32.9 µM; TGI (XF 498 CNS): 27.8 µM
CCOC(=O)CP(=S)(S)c1ccccc1 (stereo not drawn)	> 100	> 100	> 100	–	–	–	–	TGI (XF 498 CNS): > 100 µM
C[C@H]1CCC2C(CN3CCCCC3)C(=O)OC2[C@]2(C)C(=O)CC(N3CCCCC3)C12O (stereo partly drawn)	23.4	23.9	–	–	–	–	–	TGI (RXF-631 renal): 3.71 µM; TGI (HOP-18 NSCLC): 48.4 µM
CNC(=O)c1cc(Oc2ccc3nc(NC(=O)Nc4cc(C(F)(F)F)cc(C(F)(F)F)c4)sc3c2)ccn1	–	–	–	1.34	3.07 µM	1.05	2.93 µM	–
C=CCCCC(O)c1ccc(C(O)c2cnc3ccccc3c2)o1 (stereo not drawn)	–	–	–	19.7	63.5 µM	26	> 100 µM	–
O=C(c1ccccc1)c1c2n(c3c1cc(O)c1ccccc13)CCN2	–	–	–	13.5	30.6 µM	1.97	3.87 µM	–
COc1cc(/C=C2\CC3C4CCC5=CC(=O)CC[C@]5(C)C4CC[C@]3(C)C2=O)ccc1OCCN1CCCCC1 (stereo partly drawn)	–	–	–	6.19	23.3 µM	3.35	8.55 µM	–
N/C(=N\C(N)=N\c1nc2ccccc2s1)c1ccnc(Br)c1	–	–	–	4.32	> 100 µM	5.49	> 100 µM	–
COc1ccc(Nc2ncccc2C(=O)NCc2cn(Cc3cccc(Oc4ccccc4)c3)nn2)c(OC)c1	–	–	–	2.99	> 100 µM	0.653	> 100 µM	–
COc1ccc(/C=C/C(=O)c2ccccc2)cc1OC	–	–	–	–	37.5 µM and 35.3 µM	3.3	11.8 µM and 13.4 µM	TGI (MDA-N): 15.3 µM
Oc1[nH]c2ccccc2c1/C=c1/ccc2c(c1)N=C(c1cc(F)cc(F)c1)N=2	–	–	–	2.13	12.1 µM	2.84	14.1 µM	–
CCN(CC)CCNC(=O)C(Cl)=C1C(Cl)=C(Cl)C(Cl)=C1Cl	–	–	–	12.6	25.3 µM	2.8	13.5 µM	–
Cc1ccnc(NC(c2ccccc2)c2ccc3cccnc3c2O)c1 (stereo not drawn)	–	–	–	–	–	5.18	30.4 µM	–
Cc1cc(C)c(C2=NO[C@@H]3C(=O)N(c4ccc(Cc5ccc(N6C(=O)[C@H]7C(c8c(C)cc(C)cc8C)=NO[C@H]7C6=O)cc5)cc4)C(=O)[C@H]23)c(C)c1	> 100	> 100	> 100	–	–	–	–	TGI (HOP-18 NSCLC): > 100 µM; TGI (XF 498 CNS): > 100 µM

SMILES	TGI (DMS 273 small cell lung) [µM]	TGI (M19-MEL melanoma) [µM]	TGI (LXFL 529 NSCLC) [µM]	GI50 (BT-549 breast) [µM]	TGI (BT-549 breast)	GI50 (MCF7 breast) [µM]	TGI (MCF7 breast)	also measured
CSc1nc(SC)c2c(C)cn(C3OC(C)C(O)C(O)C3O)c2n1 (stereo not drawn)	–	–	–	–	> 100 µM	–	> 100 µM	TGI (MDA-N): > 100 µM
C1C[S][Ge]2([S]CCS1)[S]CCSCC[S]2	> 100	> 100	> 100	–	–	–	–	GI50 (DMS 273 small cell lung): > 100 µM; GI50 (M19-MEL melanoma): > 100 µM; GI50 (LXFL 529 NSCLC): > 100 µM
Cc1nc(-n2nc(-c3ccccc3)cc2-c2ccccc2)sc1C(/C=C/c1ccc([N+](=O)[O-])cc1)=N/NC(N)=S	–	> 100	> 100	–	–	–	–	–
CCCCCCn1c2c(c3c(O)cccc31)C(=O)c1ccccc1-2	–	–	–	16.4	33.9 µM	18	35.2 µM	–
O=c1[nH]c(-c2ccc([N+](=O)[O-])cc2)nc2ccc(Cl)cc12	> 100	> 100	> 100	–	–	–	–	–
NNc1ncnc2cccc(Cl)c12	–	–	–	–	> 100 µM	–	> 100 µM	TGI (MDA-N): > 100 µM
C/C(CC(=O)Nc1ccc([N+](=O)[O-])cc1)=N\Nc1ccc([N+](=O)[O-])cc1[N+](=O)[O-]	> 100	> 100	> 100	–	–	–	–	TGI (RXF-631 renal): > 100 µM; TGI (XF 498 CNS): > 100 µM
CN(CC1NCCCC1O)C12CC3CC(CC(C3)C1)C2 (stereo not drawn)	> 100	> 100	> 100	–	–	–	–	TGI (HOP-18 NSCLC): > 100 µM; TGI (XF 498 CNS): > 100 µM
O=C1CCCCCCCCCCOC(=O)CCCCCCCCCCO1	> 100	> 100	> 100	–	–	–	–	TGI (HOP-18 NSCLC): > 100 µM
COC1/C=C/OC2(C)Oc3c(C)c(O)c4c(O)c(c(C=NOC(c5ccccc5)c5ccccc5)c(O)c4c3C2=O)NC(=O)/C(C)=C/C=C/C(C)C(O)C(C)C(O)C(C)C(OC(C)=O)C1C (stereo not drawn)	–	–	–	1.62	5.47 µM	1.31	3.81 µM	–
Clc1ccc(Nc2ncnc3c2sc2ncccc23)c(Cl)c1	–	–	–	0.0243	> 100 µM	< 0.01	> 100 µM	–
C=C1CCC2(C(C)=O)COC1(C)O2 (stereo not drawn)	> 100	> 100	–	–	–	–	–	TGI (HOP-18 NSCLC): > 100 µM; TGI (XF 498 CNS): > 100 µM
COc1cc(-c2ccc(=O)oc2C#Cc2ccccc2)cc(OC)c1OC	–	–	–	19.2	63.4 µM	–	–	–
CN1c2ccccc2S(=O)(=O)n2c(COc3ccccc3)nnc21	–	–	–	–	> 100 µM	–	> 100 µM	TGI (MDA-N): > 100 µM
O=C1c2ccccc2-c2ccccc2C1(Cl)Cl	–	–	–	1.72	3.14 µM	1.86	4.19 µM	–
C=C(C)C1CCC2(C(=O)O)CCC3(C)C(CCC4C5(C)CCC(O)C(C)(C)C5CCC43C)C12 (stereo not drawn)	–	–	–	–	10.9 µM	–	47.7 µM	TGI (MDA-N): 54.9 µM
O=C(O)C1C2CCC(O2)C1C(=O)NCc1cccnc1 (stereo not drawn)	–	–	–	–	> 100 µM	–	> 100 µM	TGI (MDA-N): > 100 µM
O=C(Nc1ccc(Cl)cc1)c1cc2ccccc2cc1OP(=O)(O)O	–	–	–	2.89	9.24 µM	5.52	40.9 µM	–
O=C(Nc1nc(-c2ccccc2Cl)cs1)c1cc(-c2ccc(Cl)cc2)nc2ccc(Cl)cc12	–	–	–	2.44	6.99 µM	0.678	> 100 µM	–
